Results taken from patent publication US7528133B1, “Use of thiazolidinediones derivatives for preventing uterine contractions in premature labour or lactation” (The Board of Regents of The University of Texas System, priority 1998, dated 2009).
Read-outs that look alike come from different tables or passages of the source.

Key:
oxytocin receptors (OTR) = molecular target: T1, oxytocin receptors (OTR) (Homo sapiens, UniProt P30559); experiment: Competition with 125I-OTA for OTR binding, whole-cell assay in human myometrial cells; details: for affinity for OTR binding: FIG. 1
T1 construct: endogenous in cells; host or cells: primary human term pregnant myometrial cells (from C-section tissue, collagenase dispersion)
T1 sequence (P30559 1-389): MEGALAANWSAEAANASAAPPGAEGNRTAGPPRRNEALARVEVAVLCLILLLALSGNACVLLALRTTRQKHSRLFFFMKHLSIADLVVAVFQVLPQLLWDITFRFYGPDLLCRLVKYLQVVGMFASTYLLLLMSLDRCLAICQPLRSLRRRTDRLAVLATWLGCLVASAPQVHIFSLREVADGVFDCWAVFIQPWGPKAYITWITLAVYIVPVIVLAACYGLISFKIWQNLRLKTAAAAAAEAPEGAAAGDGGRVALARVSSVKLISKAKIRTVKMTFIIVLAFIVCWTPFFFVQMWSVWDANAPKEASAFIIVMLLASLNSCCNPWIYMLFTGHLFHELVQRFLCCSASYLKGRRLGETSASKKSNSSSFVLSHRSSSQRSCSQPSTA
Experimental: FIG. 1. […] Percent inhibition of ^125I-OTA binding in human myometrial cells.
Determination of OTR ligand binding: OTA was monoiodinated as previously described (Hinko and Soloff, 1992). The specific activity of the iodinated peptide was 2000 Ci/mmol at the time of preparation. Whole cell assays for specific OTR binding activity were performed as described previously, using increasing concentrations of [^125I]OTA (Copland et al., 1999). The concentration of cellular DNA was determined in parallel, using the Hoechst dye H 33258 and a Hoefer DyNA Quant fluorometer according to the manufacturer's instructions.
The specific binding was determined by subtracting […]. Specific binding was expressed as a percent of total binding. All points were done in triplicate.

[1] = tested on: oxytocin receptor (OTR) in human term myometrial cells; experiment: Oxytocin-induced intracellular calcium transients in human term myometrial cells (Fura-2, single cells); type: cell-based; details: 0.001 μg/ml (2.2 nM) troglitazone, 1 min before 10 nM oxytocin; FIG. 3B
Experimental: FIGS. 3A-H. Change in intracellular cytoplasmic calcium levels in human term myometrial cells in culture. Each line represents the change in calcium for a single cell. Cells were either pretreated with troglitazone for one minute and then treated with oxytocin, bombesin (BBS), or bradykinin. These three agents cause an increase in intracellular calcium and cause uterine contraction under the correct circumstance. Cells were grown in 10% FBS, DMEM, penicillin/streptomycin resulting in elevated OTR levels. Cells were then put into KRH buffer containing Fura-2. The cells take up Fura-2 allowing for detection in changes of cytoplasmic levels of calcium. Cells were then treated as described for each figure. […] There is no effect of troglitazone at this concentration upon oxytocin-stimulated calcium transients.
Cell Culture Conditions: The proper protocols were followed in obtaining human term myometrium tissue from mother's delivering via C-section. Human term pregnant myometrial cells were isolated by collagenase dispersion and were grown in media consisting of Delbecco's modified eagles media (DMEM) supplemented with 10% fetal bovine serum (FBS), and 2% penicillin/streptomycin in a humidified tissue culture incubator at 37° C. under an atmosphere of 5% CO2 and 95% air. […]

[2] = tested on: oxytocin induced uterine contractions; details: Thornton et al. 1999; cited from earlier work
[3] = FIG. 1, read-out: IC50, 125I-OTA binding to OTR

Row | Structure (SMILES) | IC50 (oxytocin receptors (OTR); [3]) [µM] | affinity for OTR binding (oxytocin receptors (OTR)) | further results
1 | Cc1c(C)c2c(c(C)c1O)CCC(C)(COc1ccc(CC3SC(=O)NC3=O)cc1)O2 (racemic) [troglitazone, ±5-[[4-[(3,4-dihydro-6-hydroxy-2,5,7,8-tetramethyl-2H-1-benzopyran-2-yl)methoxy]phenyl]methyl]-2,4-thiazolidinedione] | – | – | IC50 (oxytocin receptors (OTR); FIG. 1, read-out: 50% inhibitory concentration (IC50), 125I-OTA binding to OTR): 0.0157 µM; effect on oxytocin-stimulated calcium transients [1]: no effect
2 | CC(=O)[C@H]1CC[C@H]2[C@@H]3CC[C@H]4CC(=O)CC[C@]4(C)[C@H]3CC[C@]12C [5β-dihydroprogesterone] | ~100 | – | concentration needed to inhibit oxytocin induced uterine contractions [2]: 100 µM
3 | C[C@]12CC[C@@H]3c4ccc(O)cc4CC[C@H]3[C@@H]1CC[C@@H]2O [17β-estradiol] | – | no affinity | –
4 | CN(CCOc1ccc(CC2SC(=O)NC2=O)cc1)c1ccccn1 (centres unmarked) [BRL49653, rosiglitazone] | ~10.6 | – | –
5 | Cc1c(C)c2c(c(C)c1OC(=O)CCC(=O)O)CC[C@@](C)(CCC[C@H](C)CCC[C@H](C)CCCC(C)C)O2 [Vitamin E succinate] | – | no affinity | –
6 | CCc1ccc(CCOc2ccc(CC3SC(=O)NC3=O)cc2)nc1 (centres unmarked) [pioglitazone] | ~10.6 | – | –
